The record followed here is US20230151014A1 (Repare Therapeutics Inc., priority 2020, published 2023).

SMILES strings stand for the structures.

The assay has as its target T1, recombinant human Myt1 (Homo sapiens, UniProt Q99640).
T1 construct: full length PKMYT1 recombinant human protein expressed in insect cells
T1 sequence (Q99640 1-499): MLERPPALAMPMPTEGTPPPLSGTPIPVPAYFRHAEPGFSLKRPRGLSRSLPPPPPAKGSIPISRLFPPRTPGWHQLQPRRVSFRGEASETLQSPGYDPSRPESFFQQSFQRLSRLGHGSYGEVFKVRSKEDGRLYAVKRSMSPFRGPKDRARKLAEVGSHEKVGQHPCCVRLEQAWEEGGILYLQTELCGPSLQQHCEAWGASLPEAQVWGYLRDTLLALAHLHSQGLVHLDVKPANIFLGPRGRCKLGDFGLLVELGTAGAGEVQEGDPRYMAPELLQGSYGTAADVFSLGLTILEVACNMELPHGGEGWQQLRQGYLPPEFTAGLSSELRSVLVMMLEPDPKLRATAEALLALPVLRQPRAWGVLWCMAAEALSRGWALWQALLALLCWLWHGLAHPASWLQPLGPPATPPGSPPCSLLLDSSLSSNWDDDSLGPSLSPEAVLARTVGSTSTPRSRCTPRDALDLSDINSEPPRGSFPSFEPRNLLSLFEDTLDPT
Briefly: Myt1 enzymatic assay (ADP-Glo kinase assay, IC50 and % max inhibition). Format: biochemical. Conditions: recombinant human Myt1 18 nM, ATP 10 μM. Here is the method:
Detection of Myt1 kinase activity utilized a recombinant human Myt1 kinase assay measuring the hydrolysis of ATP using a commercially available ADP-Glo Assay (ADP-Glo™ Kinase Assay from Promega, 10 000 assays, #V9102). […] After this, 5 μL of compounds (diluted in reaction buffer to 0.5% DMSO) was added to the microplate and the plate was spun briefly and incubated at 22° C. for 15 minutes. Ultra-Pure Adenosine Triphosphate (ATP) solution (ADP-Glo kit from Promega) was diluted in reaction buffer and 5 μL was added to the microplate, spun down briefly and incubated for 60 minutes at 30° C. […] After the 60-minute incubation, 15 μL of ADP-Glo reagent was added and the plate was spun briefly and sealed and incubated in the dark for 40 minutes at 22° C. […] Luminescence was read using the Envision (250 ms integration). The IC50 and the % max inhibition were calculated for each inhibitor compound tested.
For orientation: ADP-Glo turns the ADP formed in a reaction into a luminescent signal.
On to `Cc1ccc(O)c(C)c1-n1c(N)c(C(N)=O)c2nc(-c3nccs3)c(C)nc21` [Compound 31, 6-amino-5-(3-hydroxy-2,6-dimethyl-phenyl)-3-methyl-2-thiazol-2-yl-pyrrolo[2,3-b]pyrazine-7-carboxamide], for which the IC50 (in general, the concentration at which inhibition is half-maximal) is below 10 nM.
Under `Cc1ccc(O)c(C)c1-n1c(N)c(C(N)=O)c2ncc(C#Cc3ccccc3)nc21` [Compound 230] stands 368 nM; under `Cc1ccc(O)cc1-n1c(N)c(C(N)=O)c2ncc(C#Cc3cccnc3)nc21` [Compound 160, 6-amino-5-(5-hydroxy-2-methyl-phenyl)-3-[2-(3-pyridyl)ethynyl]pyrrolo[2,3-b]pyrazine-7-carboxamide], 554 nM.
Turning to `Cc1ccc(O)cc1-n1c(N)c(C(N)=O)c2nc(NCc3ccccc3)cnc21` [Compound 282], the IC50 came out at 625 nM.
With `Cc1ccc(O)cc1-n1c(N)c(C(N)=O)c2ncc(CCCN3CCOCC3)nc21` [Compound 161], the half-maximal inhibitory concentration (IC50) turned out to be 671 nM.
As to `Cc1nc2c(C(N)=O)c(N)n(-c3c(Cl)ccc(O)c3C)c2nc1C` [Compound 168], the IC50 was below 10 nM.
`Cc1ccc(O)c(Cl)c1-n1c(N)c(C(N)=O)c2nc(C3CC3)cnc21` [Compound 104]: the IC50 was below 10 nM.
Under `Cc1ccc(O)c(C)c1-n1c(N)c(C(N)=O)c2nc(-c3cn(C)cn3)cnc21` [Compound 76] stands below 10 nM; under `Cc1ccc(O)cc1-n1c(N)c(C(N)=O)c2ncc(C#CCN3CCOCC3)nc21` [Compound 163], 334 nM; under `Cc1ccc(O)c(C)c1-n1c(N)c(C(N)=O)c2cc(N3CCCC3=O)cnc21` [Compound 298], below 10 nM.
Under `Cc1ccc(O)cc1-n1c(N)c(C(N)=O)c2ncc(-c3cccc(C(N)=O)c3)nc21` [Compound 156] stands 465 nM; under `Cc1ccc(O)c(C)c1-n1c(N)c(C(N)=O)c2nc(N3CCC(C(=O)N(C)C)CC3)cnc21` [Compound 80], below 10 nM; under `Cc1ccc(O)c(C)c1-n1c(N)c(C(N)=O)c2nc(CCC3CCCN3)cnc21` (stereo not shown) [Compound 2, 6-amino-5-(3-hydroxy-2,6-dimethylphenyl)-2-(2-(pyrrolidin-2-yl)ethyl)-5H-pyrrolo[2,3-b]pyrazine-7-carboxamide], 231 nM.
The result for `Cc1ccc(O)c(C)c1-n1c(N)c(C(N)=O)c2nc(-c3ccc(Cl)cn3)cnc21` [Compound 49] reads below 10 nM; that for `Cc1ccc(O)c(C)c1-n1c(N)c(C(N)=O)c2nc(N3CCC(C)(O)CC3)cnc21` [Compound 52], 10 nM; that for `Cc1ccc(O)c(C)c1-n1c(N)c(C(N)=O)c2nc3c(nc21)CCCC3` [Compound 262], below 10 nM.
With `Cc1ccc(O)c(C)c1-n1c(N)c(C(N)=O)c2nc(CCC3CCNC3)cnc21` (stereo not shown) [Compound 280], the half-maximal inhibitory concentration (IC50) amounted to 80 nM.
The result for `Cc1ccc(O)c(C)c1-n1c(N)c(S(C)(=O)=O)c2nc(-c3cnccn3)cnc21` [Compound 278] reads above 5000 nM; that for `Cc1ccc(O)c(C)c1-n1c(N)c(C(N)=O)c2nc(C3=CCC(C(=O)N(C)C)CC3)cnc21` (stereo not shown) [Compound 58], below 10 nM.
The result for `Cc1ccc(O)c(C)c1-n1c(N)c(C(N)=O)c2ncc(C#CC3CCOCC3)nc21` [Compound 225] reads 34 nM; that for `C=Cc1cnc2c(C(N)=O)c(N)n(-c3c(C)ccc(O)c3C)c2n1` [Compound 257, 6-amino-5-(3-hydroxy-2,6-dimethyl-phenyl)-3-vinyl-pyrrolo[2,3-b]pyrazine-7-carboxamide], 43 nM; that for `Cc1ccc(O)c(C)c1-n1c(N)c(C(N)=O)c2nc(C#CCN3CCOCC3)cnc21` [Compound 217], 168 nM.
The result for `Cc1ccc(O)c(C)c1-n1cc(C(N)=O)c2cc(C3CC3)cnc21` [Compound 143] reads below 10 nM; that for `Cc1ccc(O)cc1-n1c(N)c(C(N)=O)c2nc(-c3ccc(F)c(Cl)c3)ccc21` [Compound 15], 1090 nM; that for `Cc1ccc(O)c(C)c1-n1c(N)c(C(N)=O)c2nc(C3CCCCC3)cnc21` [Compound 83], below 10 nM.
